Experimental data from patent US20250313563A1, “GLYCOGEN SYNTHASE KINASE 3 INHIBITORS AND USES THEREOF” (The Broad Institute, Inc., priority 2022, published 2025).
Where two headings read alike, the source gives them in different places. Blank lines part the entries; values can stand above or below the molecule they belong to.

What was measured:
[1] = target: GSK3α (GST-full length GSK3α) (Homo sapiens (Human), UniProt P49840); test: GSK3α TR-FRET kinase assay; assay type: biochemical
In short: (§1)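 In this time-resolved FRET format, kinase reactions contained 200 nM biotinylated, S645-phosphorylated glycogen synthase 631-650 peptide and either isoform-specific ATP (2 μM GSK3b, 4 μM GSK3α) or 1 mM ATP. They were quenched with EDTA after 100 min at ambient temperature. Inhibition curves gave IC50 values.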

[2] = target: GSK3b (GST-full length GSK3b) (Homo sapiens (Human), UniProt P49841); test: GSK3b TR-FRET kinase assay; assay type: biochemical
In short: as §1

[3] = 1 nM GSK3α, 4 μM ATP, 30 minute preincubation, Table 16, read-out: GSK3-A TR-FRET BIOCHEMICAL (TR-FRET), IC50
[4] = read-out: GSK3-A (TR-FRET 1 mM ATP), GMean, IC50, 1 mM ATP, geometric mean
[5] = 1 nM GSK3b, 2 μM ATP, 30 minute preincubation, Table 16, read-out: GSK3-B TR-FRET BIOCHEMICAL (TR-FRET), IC50
[6] = read-out: GSK3-B (TR-FRET 1 mM ATP), GMean, IC50, 1 mM ATP, geometric mean
[7] = 1 nM GSK3α, 4 μM ATP, 30 minute preincubation, read-out: GSK3-A TR-FRET BIOCHEMICAL (TR-FRET), IC50
[8] = 1 nM GSK3b, 2 μM ATP, 30 minute preincubation, read-out: GSK3-B TR-FRET BIOCHEMICAL (TR-FRET), IC50
[9] = 1 nM GSK3α, 4 μM ATP, 30 minute preincubation, Table 16, read-out: GSK3-A TR-FRET BIOCHEMICAL (TR-FRET)
[10] = 1 nM GSK3b, 2 μM ATP, 30 minute preincubation, Table 16, read-out: GSK3-B TR-FRET BIOCHEMICAL (TR-FRET)
[11] = 1 nM GSK3α, 4 μM ATP, 30 minute preincubation, geometric mean, read-out: GSK3-A TR-FRET BIOCHEMICAL (TR-FRET), GMean, IC50
[12] = 1 nM GSK3b, 2 μM ATP, 30 minute preincubation, geometric mean, read-out: GSK3-B TR-FRET BIOCHEMICAL (TR-FRET), GMean, IC50

Sequence of GSK3b (GST-full length GSK3b) (P49841 whole entry): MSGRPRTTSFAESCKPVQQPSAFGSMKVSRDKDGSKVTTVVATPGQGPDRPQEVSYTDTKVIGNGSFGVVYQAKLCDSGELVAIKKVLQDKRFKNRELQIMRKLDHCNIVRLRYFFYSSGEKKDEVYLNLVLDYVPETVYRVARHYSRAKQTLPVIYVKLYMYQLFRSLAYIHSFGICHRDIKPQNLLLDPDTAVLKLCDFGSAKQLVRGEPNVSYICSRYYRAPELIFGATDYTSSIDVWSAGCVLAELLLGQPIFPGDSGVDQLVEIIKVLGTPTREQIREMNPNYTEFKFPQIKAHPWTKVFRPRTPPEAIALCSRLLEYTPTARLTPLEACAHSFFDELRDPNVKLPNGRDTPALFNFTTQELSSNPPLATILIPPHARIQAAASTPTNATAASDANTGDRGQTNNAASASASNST
Sequence of GSK3α (GST-full length GSK3α) (P49840 whole entry, canonical isoform): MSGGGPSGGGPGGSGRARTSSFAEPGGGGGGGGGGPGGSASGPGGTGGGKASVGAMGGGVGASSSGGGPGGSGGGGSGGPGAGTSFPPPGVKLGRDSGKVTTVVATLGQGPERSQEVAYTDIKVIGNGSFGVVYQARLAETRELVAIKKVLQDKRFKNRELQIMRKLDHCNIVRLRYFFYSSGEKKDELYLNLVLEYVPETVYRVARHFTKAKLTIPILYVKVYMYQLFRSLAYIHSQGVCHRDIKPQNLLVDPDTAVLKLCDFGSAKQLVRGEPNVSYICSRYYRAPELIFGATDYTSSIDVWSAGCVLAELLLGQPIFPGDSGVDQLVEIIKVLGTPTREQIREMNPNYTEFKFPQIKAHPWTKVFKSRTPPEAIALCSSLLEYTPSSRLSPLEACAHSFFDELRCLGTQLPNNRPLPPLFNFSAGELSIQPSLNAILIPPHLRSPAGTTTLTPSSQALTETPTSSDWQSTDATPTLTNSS

Compound: CC(=O)N1CC[C@@]2(C1)C1=C(CC(C)(C)CC1=O)Nc1n[nH]cc12 [Compound 889583]
- IC50 [1, 3]: 1000 to 5000 nM
- IC50 [2, 5]: > 5000 nM

Compound: CC1(C)CC(=O)C2=C(C1)Nc1n[nH]cc1C21COC2(CN(C(=O)C3CCC(F)CC3)C2)C1 (centres unmarked) [Compound 947267]
- IC50 [1, 7]: ≤ 100 nM
- IC50 [2, 8]: 100 to 1000 nM

Compound: CC[C@]1(c2cccc(-c3cnn(C)c3)c2)C2=C(CC(C)(C)NC2=O)Nc2n[nH]c(C(F)F)c21 [Compound 949911]
- IC50 [1, 3]: 100 to 1000 nM
- IC50 [2, 5]: > 5000 nM

Compound: CCC1(c2cccc(-c3ccnc(C)c3)c2)C2=C(CC(C)(C)NC2=O)Nc2n[nH]c(C(F)F)c21 (centres unmarked) [Compound 950162]
- IC50 [1, 3]: 100 to 1000 nM
- IC50 [2, 5]: 100 to 1000 nM

Compound: CC[C@]1(c2cccc(C(F)(F)F)c2)C2=C(Nc3n[nH]cc31)[C@H](C)CNC2=O [Compound 945385]
- IC50 [1, 7]: > 5000 nM
- IC50 [2, 8]: > 5000 nM

Compound: C[C@@H]1C[C@@]2(CCN1S(=O)(=O)c1ccn(C)n1)C1=C(CC(C)(C)CC1=O)Nc1n[nH]cc12 [Compound 917161]
- IC50 [1, 9]: ≤ 100 nM
- IC50 [2, 10]: ≤ 100 nM

Compound: CC[C@@]1(c2cccc(-c3c(C)ccc4c(C)cccc34)c2)C2=C(CC(C)(C)NC2=O)Nc2n[nH]c(F)c21 [Compound 949392]
- IC50 [1, 3]: 1000 to 5000 nM
- IC50 [2, 5]: > 5000 nM

Compound: Cc1cc(S(=O)(=O)N2CCC3(CC2)C2=C(CC(C)(C)CC2=O)Nc2n[nH]cc23)n(C)n1 [Compound 947608]
- IC50 [1, 9]: ≤ 100 nM
- IC50 [2, 10]: ≤ 100 nM

Compound: CC(C)Oc1ccc(S(=O)(=O)N2CCC3(CC2)C2=C(CC(C)(C)CC2=O)Nc2n[nH]cc23)cc1 [Compound 945673]
- IC50 [1, 9]: ≤ 100 nM
- IC50 [2, 10]: ≤ 100 nM

Compound: CCC1(c2cccc(S(=O)(=O)C3CC3)c2)C2=C(CC(C)(C)NC2=O)Nc2n[nH]c(C)c21 (centres unmarked) [Compound 947562]
- IC50 [1, 11]: ≤ 100 nM
- IC50 [2, 12]: ≤ 100 nM

Compound: CC1(C)CC(=O)C2=C(C1)Nc1n[nH]cc1[C@]21CCO[C@@H](C(F)(F)F)C1 [Compound 884021]
- IC50 [1, 9]: 100 to 1000 nM
- IC50 [2, 10]: 100 to 1000 nM

Compound: CC1(C)CC(=O)C2=C(C1)Nc1n[nH]cc1C21CCN(S(=O)(=O)c2cccc(C#N)c2)CC1 [Compound 947254]
- IC50 [1, 9]: ≤ 100 nM
- IC50 ([1]; GSK3-A (TR-FRET 1 mM ATP), GMean, IC50, 1 mM ATP, geometric mean): ≤ 100 nM
- IC50 [2, 10]: ≤ 100 nM
- IC50 ([2]; GSK3-B (TR-FRET 1 mM ATP), GMean, IC50, 1 mM ATP, geometric mean): 100 to 1000 nM

Compound: CC1(C)CC(=O)C2=C(C1)Nc1n[nH]cc1C21CCN(S(=O)(=O)c2c(F)cc(F)cc2F)CC1 [Compound 947484]
- IC50 [1, 7]: ≤ 100 nM
- IC50 [2, 8]: ≤ 100 nM

Compound: CC[C@]1(c2cccc(S(=O)(=O)CC3CC3)c2)C2=C(CC(C)(C)NC2=O)Nc2n[nH]c(C(F)(F)F)c21 [Compound 949175]
- IC50 [1, 11]: ≤ 100 nM
- IC50 [1, 4]: ≤ 100 nM
- IC50 [2, 12]: ≤ 100 nM
- IC50 [2, 6]: ≤ 100 nM

Compound: CC(=O)N1CC[C@]2(C1)C1=C(CC(C)(C)CC1=O)Nc1n[nH]cc12 [Compound 889584]
- IC50 [1, 3]: 100 to 1000 nM
- IC50 [2, 5]: 1000 to 5000 nM

Compound: CC1(C)CC(=O)C2=C(Nc3n[nH]cc3C23CCCCC3)[C@H]1F [Compound 951711]
- IC50 [1, 9]: ≤ 100 nM
- IC50 [2, 10]: ≤ 100 nM

Compound: O=C1CCCC2=C1C1(CCOCC1)c1c[nH]nc1N2 [Compound 884111]
- IC50 [1, 3]: 1000 to 5000 nM
- IC50 [2, 5]: > 5000 nM

The next lines start with the values.

- IC50 [1, 3]: 100 to 1000 nM
- IC50 [1, 4]: > 5000 nM
- IC50 [2, 5]: 1000 to 5000 nM
- IC50 [2, 6]: > 5000 nM
Compound: CCC1(c2cccc(-c3cnn(-c4ccccn4)c3)c2)C2=C(CC(C)(C)NC2=O)Nc2n[nH]cc21 (centres unmarked) [Compound 952566]

- IC50 [1, 3]: > 5000 nM
- IC50 [2, 5]: > 5000 nM
Compound: CC[C@]1(c2cccc(-c3cc(C)nc(C)c3)c2)C2=C(CC(C)(C)CC2=O)Nc2n[nH]cc21 [Compound 913223]

- IC50 [1, 9]: 1000 to 5000 nM
- IC50 [2, 10]: > 5000 nM
Compound: CCC1(c2cccc(-c3cnn(C)c3)c2)C2=C(Nc3n[nH]cc31)C(F)C(C)(C)CC2=O (centres unmarked) [Compound 957510]

- IC50 [1, 11]: ≤ 100 nM
- IC50 [2, 12]: ≤ 100 nM
Compound: CC[C@@]1(c2cccc(-c3ccncc3C)c2)C2=C(C[C@@]3(CCCOC3)NC2=O)Nc2n[nH]cc21 [Compound 947911]

- IC50 [1, 4]: 100 to 1000 nM
- IC50 [2, 6]: 1000 to 5000 nM
Compound: CCC1(c2cccc(C3CCCC3)c2)C2=C(CC(C)(C)CC2=O)Nc2n[nH]cc21 (centres unmarked) [Compound 949397]

- IC50 [1, 3]: ≤ 100 nM
- IC50 [2, 5]: ≤ 100 nM
Compound: CCC1(c2cccc(N(Cc3ccccc3)C(C)=O)c2)C2=C(CC(C)(C)CC2=O)Nc2n[nH]cc21 (centres unmarked) [Compound 884110]

- IC50 [1, 4]: ≤ 100 nM
- IC50 [2, 6]: 100 to 1000 nM
Compound: CCC1(c2cccc(-c3c(C)cncc3C)c2)C2=C(CC(C)(C)CC2=O)Nc2n[nH]cc21 (centres unmarked) [Compound 947658]

- IC50 [1, 11]: ≤ 100 nM
- IC50 [1, 4]: 100 to 1000 nM
- IC50 [2, 12]: ≤ 100 nM
- IC50 [2, 6]: 1000 to 5000 nM
Compound: CCC1(c2cccc(C(F)(F)F)c2)C2=C(CC(C)(C)CC2=O)Nc2n[nH]cc21 (centres unmarked) [Compound 790754]

- IC50 [1, 3]: ≤ 100 nM
- IC50 [2, 5]: 100 to 1000 nM
Compound: CCC1(c2cccc(-c3ccnc(C(F)(F)F)c3)c2)C2=C(CC(C)(C)CC2=O)Nc2n[nH]cc21 (centres unmarked) [Compound 913348]

- IC50 [1, 3]: ≤ 100 nM
- IC50 [2, 5]: 100 to 1000 nM
Compound: CC[C@]1(c2cccc([C@H]3CCOC3)c2)C2=C(CC(C)(C)CC2=O)Nc2n[nH]cc21 [Compound 889558]

- IC50 [1, 9]: ≤ 100 nM
- IC50 [2, 10]: 100 to 1000 nM
Compound: CCC1(c2cccc(C(F)(F)F)c2)C2=C(Nc3n[nH]cc31)C(C)(C)N(C)C2=O (centres unmarked) [Compound 913198]

- IC50 [1, 3]: ≤ 100 nM
- IC50 [2, 5]: 1000 to 5000 nM
Compound: CC[C@]1(c2cccc(-c3cnn(C(F)F)c3)c2)C2=C(CC(C)(C)NC2=O)Nc2n[nH]cc21 [Compound 950254]

- IC50 [1, 3]: 100 to 1000 nM
- IC50 [2, 5]: 1000 to 5000 nM
Compound: CCC1(c2cccc(-c3cc(C4CCCC4)nn3C)c2)C2=C(CC(C)(C)NC2=O)Nc2n[nH]cc21 (centres unmarked) [Compound 952023]

- IC50 [1, 7]: 1000 to 5000 nM
- IC50 [2, 8]: > 5000 nM
Compound: CC[C@@]1(c2cccc(-c3cnn(C)c3C)c2)C2=C(CC(C)(C)NC2=O)Nc2n[nH]cc21 [Compound 945617]

- IC50 [1, 3]: ≤ 100 nM
- IC50 [2, 5]: ≤ 100 nM
Compound: CCC1(c2cccc(-c3ccncc3OC)c2)C2=C(CC(C)(C)CC2=O)Nc2n[nH]cc21 (centres unmarked) [Compound 932627]

- IC50 [1, 3]: ≤ 100 nM
- IC50 [2, 5]: 100 to 1000 nM
Compound: CCC1(c2cccc(-c3cnn(CCOC)c3)c2)C2=C(CC(C)(C)CC2=O)Nc2n[nH]c(C)c21 (centres unmarked) [Compound 883996]

- IC50 [1, 9]: 100 to 1000 nM
- IC50 [2, 10]: > 5000 nM
Compound: CCC1(c2cccc(S(=O)(=O)C3COC3)c2)C2=C(CC(C)(C)CC2=O)Nc2n[nH]cc21 (centres unmarked) [Compound 946003]

- IC50 [1, 11]: ≤ 100 nM
- IC50 [2, 12]: 100 to 1000 nM
Compound: CC[C@]1(c2cccc(-c3cc(OC)ncc3F)c2)C2=C(CC(C)(C)NC2=O)Nc2n[nH]cc21 [Compound 949109]

- IC50 [1, 11]: 100 to 1000 nM
- IC50 [2, 12]: 1000 to 5000 nM
Compound: CCC1(c2cccc(-c3cnn(C)c3)c2)C2=C(CC(C)(C)CC2=O)Nc2n[nH]cc21 (centres unmarked) [Compound 819576]

- IC50 [1, 9]: ≤ 100 nM
- IC50 [1, 4]: ≤ 100 nM
- IC50 [2, 10]: ≤ 100 nM
- IC50 [2, 6]: 100 to 1000 nM
Compound: CCC1(c2cccc(-c3c(F)cncc3OC)c2)C2=C(CC(C)(C)CC2=O)Nc2n[nH]cc21 (centres unmarked) [Compound 945704]

- IC50 [1, 11]: 100 to 1000 nM
- IC50 [2, 12]: 100 to 1000 nM
Compound: COc1cccc(C2(C)C3=C(CC(C)(C)CC3=O)Nc3n[nH]cc32)c1 (centres unmarked) [Compound 792342]

- IC50 [1, 7]: ≤ 100 nM
- IC50 [2, 8]: 100 to 1000 nM
Compound: CCC1(c2cccc(C(F)(F)F)c2)C2=C(CCN(c3ccc(OC)cc3)C2=O)Nc2n[nH]cc21 (centres unmarked) [Compound 947332]

- IC50 [1, 9]: 100 to 1000 nM
- IC50 [2, 10]: 1000 to 5000 nM
Compound: CCC1(c2cccc(C3CN(C(C)=O)C3)c2)C2=C(CC(C)(C)CC2=O)Nc2n[nH]cc21 (centres unmarked) [Compound 949131]

- IC50 [1, 7]: 100 to 1000 nM
- IC50 [2, 8]: 1000 to 5000 nM
Compound: CCC1(c2cccc(C(F)(F)F)c2)C2=C(CCNC2=O)Nc2n[nH]cc21 (centres unmarked) [Compound 912622]
